# From patent US20130101628A1 (NORTHWESTERN UNIVERSITY, priority 2011, published 2013)
# * marks the point of attachment. Palmitoyl = CCCCCCCCCCCCCCCC(=O)*
# Assays:
# [1] = molecular target: T1, VEGF receptor 1 (VEGFR1 or Flt-1) (Homo sapiens, UniProt P17948); experiment: Sandwich ELISA of phosphorylated VEGFR1 in lysates of stimulated HUVEC; assay type: cell-based; conditions: HUVEC time-course 0-60 minutes; falls below untreated baseline
# T1 construct: host or cells: HUVEC
# Description: (§1) Human umbilical vein endothelial cells (HUVECs) and complete endothelial cell growth media (EGM) were purchased (Genlantis, San Diego, Calif.), passaged two times following receipt, and cryo-preserved in media with 5% DMSO. Cells were thawed as needed and grown to confluence in a […] flasks (VWR Falcon) prior to plating for experiments.
# (§2) Phosphorylation of both VEGFRI and VEGFR2 was assayed using commercially available assay kit (R&D Systems, Minneapolis, Minn.) following the recommended protocol. First, confluent HUVECs plated in 24 well plates were starved for 5 hours in serum-free defined media (SFDM, Genlantis) specifically designed to maintain cells in a growth factor-free setting for growth factor signaling and metabolic assays. Following starvation, the various treatments were dissolved in SFDM to a concentration of 1 μM. […] Cells were exposed to treatment for 2 minutes. To evaluate the time-course of phosphorylation the same protocol was followed and cells were exposed to VEGF-PA for 0, 1, 3, 5, 10, 15, 20, 25, 30, 40, 50, and 60 minutes.
# [2] = molecular target: T2, VEGF receptor 2 (VEGFR2 or KDR) (Homo sapiens, UniProt P35968); experiment: Sandwich ELISA of phosphorylated VEGFR2 in lysates of stimulated HUVEC; assay type: cell-based
# T2 construct: host or cells: HUVEC
# Description: as §1, §2
# [3] = tested on: HUVECs; experiment: HUVEC proliferation (CyQUANT-NF cell number); assay type: cell-based, human; conditions: 1 μM in EGM, 48 hours; untreated control 100.0%
# Description: In vitro studies were performed using HUVECs, a primary endothelial cell that is VEGF-responsive and frequently used as a model endothelial cell for angiogenesis studies in vitro [31].
# To evaluate proliferation, HUVECs were plated at 5000 per well in a 96 well plate. […] Additionally, unsupplemented growth media was used as a control. After 48 hours, cell number was quantified using CyQUANT-NF (Invitrogen) and a standard fluorescent microplate reader. Cell number is expressed relative to the group treated with unsupplemented growth media.
# [4] = tested on: HUVECs; experiment: HUVEC migration scratch assay; assay type: cell-based, human; conditions: 1 μM in EBM with 0.5% FBS, 18 hours; untreated 25.2%
# Description: To evaluate cell migration, endothelial basal media (EBM) without growth factors (Lonza) was supplemented with 0.5% FBS in order to prevent apoptosis but not promote significant migration or proliferation. Cells were grown to confluence in a 12 well plate and a 1 ml pipette tip was used to create a denuded scratch and the surface was washed twice with PBS to remove detached cells. The average scratch width at the initial time-point was […] Markings were placed on the underside of the plate to ensure the same region of the scratch was recorded in each image. […] The total pixel area of the scratch at the initial time-point was recorded using ImageJ analysis software, and the percent migration was determined from the reduction in denuded area at 18 hours.
# [5] = tested on: ischemic hind-limb; experiment: Murine hind-limb ischemia (HLI) model; assay type: in vivo, mice; conditions: for limb motor function score / tissue (limb) salvage score: single i.m. injection 25 μl of 2 mM; for limb motor function score: grade 1-5; for tissue (limb) salvage score: grade 1-6
# Description: For the HLI procedure, eight week old male FVB wild-type mice (Charles River) were anesthetized by intraperitoneal injection of avertin (125 mg/kg). By means of a dissecting microscope, the femoral nerve was carefully separated from the vessel bundle. The right femoral artery was ligated and excised, including all superficial and deep branches. Critical limb ischemia was immediately verified by laser Doppler imaging (LDPI, MoorLDI-SIM, Moor Instruments, Ltd) to ensure the ratio (ischemic/non-ischemic limb) was ≦0.20. At postoperative day 3, outliers with low ischemia were triaged based on LDPI (ratio ischemic/nonischemic 0.30) as were outliers with extreme ischemia (necrotic demarcation of entire limb), determined by macroscopic evaluation. […] For follow-up, animals underwent reevaluations with LDPI at postoperative day 7, 14, and 28 before animals were sacrificed (CO, asphyxia) for tissue harvest at day 28. At each time-point, tissue perfusion was measured via LDPI, measuring blood flow in both the ischemic and non-ischemic limb and reporting results as the ratio of these two measurements. All LDPI measurements were taken on a 37° C. heating pad to control body temperature. In addition, motor function and tissue damage was semi-quantitatively assessed on post-operative day 7, 14, 21 and 28 by established scoring systems. Tissue damage in the ischemic limb (limb salvage score) was graded as full recovery (grade 6), minor necrosis or nail loss (grade 5), partial toe amputation (grade 4), total toe amputation (grade 3), partial/total foot amputation (grade 2) or partial/total limb amputation (grade 1) (modified from). Limb motor function was graded as unrestricted (grade 5), no active use of toe(s) or spreading (grade 4), restricted foot use (grade 3), no use of foot (grade 2) or no use of limb at all (grade 1) (modified from). Finally, walking capacity was measured via a Rota Rod apparatus. […] The mean of two assessments was used as for failure time for each animal. At day 28, muscle tissue from the ischemic limb was harvested, fixed in methanol, paraffin-embedded, and cross-sectioned (6-μm) for histological immunostaining. Briefly, sections were blocked with 10% donkey serum (30 min, RT). Primary antibodies were diluted in PBS containing BSA, and applied to tissue slices for 2 hrs at 37° C. Sections were stained for CD31, an endothelial-specific marker, using rat anti-CD31 antibodies (BD Pharmingen Inc) and smooth-muscle α-actin (αSMA), a vascular smooth muscle marker, using rabbit-anti-αSMA (Sigma-Aldrich Co.). For immunofluorescent detection, primary antibodies were resolved with Alexa-Fluor-conjugated secondary antibodies (Invitrogen Corporation, Carlsbad, Calif., USA dilution) and nuclei were counterstained with DAPI (Research Organics). Slides were imaged using fluorescent microscopy (Zeiss), and CD31+capillary forms and CD31+/sMA+]mature microvessels/arterioles were quantified in 3 separate high-power fields (20×) from 3 independent sections in each animal (9 images/animal). All error bars indicate the standard error of the mean. Differences between groups were determined using a one-way analysis of variance (ANOVA) with a Bonferroni multiple comparisons post-hoc test using GraphPad InStat v3.0b. […] VEGF-PA or control treatments were administered by an intramuscular injection three days following the induction of critical ischemia by ligation and excision of the right femoral artery and all superficial and deep branches, as described above. Animals were assessed serially throughout the study for motor function and limb salvage and Laser Doppler perfusion imaging (LDPI) was used to assess tissue perfusion. At the end of the study, exercise endurance was recorded on a Rota Rod treadmill and tissue was harvested for immunohistological staining of capillaries to observe effects on the microcirculation.
# T2 sequence (P35968 20-1356): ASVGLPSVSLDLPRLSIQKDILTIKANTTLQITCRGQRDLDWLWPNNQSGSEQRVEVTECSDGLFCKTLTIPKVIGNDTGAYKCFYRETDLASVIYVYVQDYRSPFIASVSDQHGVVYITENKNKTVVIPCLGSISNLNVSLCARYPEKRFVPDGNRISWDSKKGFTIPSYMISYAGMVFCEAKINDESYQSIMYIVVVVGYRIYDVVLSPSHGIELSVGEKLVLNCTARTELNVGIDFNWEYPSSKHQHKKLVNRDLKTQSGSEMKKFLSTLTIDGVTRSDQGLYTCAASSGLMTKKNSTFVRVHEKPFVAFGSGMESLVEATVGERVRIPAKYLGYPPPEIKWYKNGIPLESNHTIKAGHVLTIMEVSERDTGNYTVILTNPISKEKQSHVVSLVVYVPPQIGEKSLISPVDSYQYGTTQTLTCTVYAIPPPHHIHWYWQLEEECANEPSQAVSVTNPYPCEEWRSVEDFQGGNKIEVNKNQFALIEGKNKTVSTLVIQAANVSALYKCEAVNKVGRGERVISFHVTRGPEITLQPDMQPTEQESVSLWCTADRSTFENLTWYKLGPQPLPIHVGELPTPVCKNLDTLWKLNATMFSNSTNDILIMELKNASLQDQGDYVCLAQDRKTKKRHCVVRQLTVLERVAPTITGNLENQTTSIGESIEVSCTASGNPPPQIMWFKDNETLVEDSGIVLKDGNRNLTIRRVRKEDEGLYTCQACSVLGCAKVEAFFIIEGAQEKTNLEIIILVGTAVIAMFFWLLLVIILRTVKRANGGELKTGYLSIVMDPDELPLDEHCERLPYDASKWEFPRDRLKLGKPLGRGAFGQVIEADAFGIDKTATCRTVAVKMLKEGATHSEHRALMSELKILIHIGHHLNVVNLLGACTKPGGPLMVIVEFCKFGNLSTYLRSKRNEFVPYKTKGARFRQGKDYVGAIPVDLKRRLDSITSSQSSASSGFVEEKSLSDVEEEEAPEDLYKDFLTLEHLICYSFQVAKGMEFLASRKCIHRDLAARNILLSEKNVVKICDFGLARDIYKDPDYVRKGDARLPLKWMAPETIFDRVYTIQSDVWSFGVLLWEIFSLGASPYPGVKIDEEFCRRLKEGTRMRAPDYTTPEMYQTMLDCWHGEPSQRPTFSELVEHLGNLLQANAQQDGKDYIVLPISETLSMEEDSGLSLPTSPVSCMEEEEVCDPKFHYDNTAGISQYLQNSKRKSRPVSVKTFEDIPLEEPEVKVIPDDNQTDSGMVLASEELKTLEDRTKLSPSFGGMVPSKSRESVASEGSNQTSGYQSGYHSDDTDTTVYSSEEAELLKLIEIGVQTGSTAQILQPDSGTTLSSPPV
# T1 sequence (P17948 27-1338): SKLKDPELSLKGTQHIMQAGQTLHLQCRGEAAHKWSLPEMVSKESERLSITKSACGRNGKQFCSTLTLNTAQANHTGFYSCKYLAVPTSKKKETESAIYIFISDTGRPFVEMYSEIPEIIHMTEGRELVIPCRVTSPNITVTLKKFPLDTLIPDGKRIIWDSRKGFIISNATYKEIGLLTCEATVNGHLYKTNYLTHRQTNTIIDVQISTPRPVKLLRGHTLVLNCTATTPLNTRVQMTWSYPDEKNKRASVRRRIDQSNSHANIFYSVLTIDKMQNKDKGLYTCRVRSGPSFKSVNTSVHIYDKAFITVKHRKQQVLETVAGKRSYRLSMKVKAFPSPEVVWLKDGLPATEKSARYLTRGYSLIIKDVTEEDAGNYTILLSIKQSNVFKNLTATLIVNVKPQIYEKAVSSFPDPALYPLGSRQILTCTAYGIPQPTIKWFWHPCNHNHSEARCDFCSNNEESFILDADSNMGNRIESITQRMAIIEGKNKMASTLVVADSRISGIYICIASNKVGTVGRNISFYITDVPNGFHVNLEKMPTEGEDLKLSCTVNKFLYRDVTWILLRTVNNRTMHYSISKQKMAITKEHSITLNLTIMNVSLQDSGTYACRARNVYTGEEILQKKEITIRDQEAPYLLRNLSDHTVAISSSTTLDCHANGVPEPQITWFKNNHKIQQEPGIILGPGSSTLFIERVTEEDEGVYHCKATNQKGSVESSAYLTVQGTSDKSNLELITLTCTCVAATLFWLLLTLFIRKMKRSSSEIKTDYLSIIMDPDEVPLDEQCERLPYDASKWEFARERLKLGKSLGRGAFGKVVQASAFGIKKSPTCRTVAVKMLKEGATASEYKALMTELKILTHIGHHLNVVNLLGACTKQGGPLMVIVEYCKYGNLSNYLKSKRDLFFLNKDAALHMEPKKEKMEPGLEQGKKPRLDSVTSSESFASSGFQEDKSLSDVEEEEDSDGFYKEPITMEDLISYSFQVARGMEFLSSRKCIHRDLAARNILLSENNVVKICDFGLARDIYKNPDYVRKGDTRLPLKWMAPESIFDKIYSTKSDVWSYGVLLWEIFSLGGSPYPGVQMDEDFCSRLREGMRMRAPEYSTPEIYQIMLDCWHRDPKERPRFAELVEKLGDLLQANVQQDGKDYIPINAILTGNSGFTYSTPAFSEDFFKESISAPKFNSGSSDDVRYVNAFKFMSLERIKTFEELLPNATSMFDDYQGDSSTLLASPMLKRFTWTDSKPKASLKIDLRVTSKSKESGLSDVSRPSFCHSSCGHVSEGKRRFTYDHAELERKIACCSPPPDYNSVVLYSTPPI
substance,measurement,setting,value
CH3(CH2)14C(O)— VVAAKKKGKLTWQELYQLKYKGI-NH2 (Palmitoyl-VVAAKKKGKLTWQELYQLKYKGI-NH2; SMILES CCCCCCCCCCCCCCCC(=O)N[C@H](C(=O)N[C@H](C(=O)N[C@@H](C)C(=O)N[C@@H](C)C(=O)N[C@@H](CCCCN)C(=O)N[C@@H](CCCCN)C(=O)N[C@@H](CCCCN)C(=O)NCC(=O)N[C@@H](CCCCN)C(=O)N[C@@H](CC(C)C)C(=O)N[C@H](C(=O)N[C@@H](Cc1c[nH]c2ccccc12)C(=O)N[C@@H](CCC(N)=O)C(=O)N[C@@H](CCC(=O)O)C(=O)N[C@@H](CC(C)C)C(=O)N[C@@H](Cc1ccc(O)cc1)C(=O)N[C@@H](CCC(N)=O)C(=O)N[C@@H](CC(C)C)C(=O)N[C@@H](CCCCN)C(=O)N[C@@H](Cc1ccc(O)cc1)C(=O)N[C@@H](CCCCN)C(=O)NCC(=O)N[C@H](C(N)=O)[C@@H](C)CC)[C@@H](C)O)C(C)C)C(C)C) [VEGF-PA],time of stimulation at which phosphorylated VEGFR1 begins to decrease after initial rise,[1],10 min
same,time of stimulation at which phosphorylated VEGFR2 begins to decrease after initial rise,"[2]; HUVEC time-course 0-60 minutes, falls below untreated baseline",10 min
same,VEGFR2 phosphorylation level relative to untreated control,"[2]; HUVEC, 1 μM, 2 minutes exposure, untreated control 1.000±0.109",1.581±0.050
same,proliferation (cell number relative to unsupplemented growth media),[3],137.0%±2.4%
same,reduction in scratch wound size (denuded area),[4],68.7%±4.2%
same,LDPI perfusion ratio (ischemic/non-ischemic limb),[5]; 14 days after induction of ischemia,0.76±0.05
same,limb motor function score,[5]; day 21,3.89±0.12
same,tissue (limb) salvage score,[5]; day 21,4.21±0.21
same,LDPI perfusion ratio (ischemic/non-ischemic limb),[5]; day 28,0.72±0.05
same,Rota Rod walking time prior to failure,"[5]; day 28, saline 90.4 seconds",150.5 ± 9.5 s
same,limb motor function score,[5]; day 28,4.21±0.16
same,tissue (limb) salvage score,[5]; day 28,4.21±0.21
same,effect on the number of CD31+/smooth muscle actin+ arterioles,[5]; tissue harvested at day 28,no effect
same,number of CD31+ capillaries in ischemic limb muscle,"[5]; tissue harvested at day 28, saline 893/mm2",1582±76 /mm2
